# Laboratory results from the OligoGym collection.
# Bases are written 5' to 3'; sugars and linkages follow in the same order, as letters with counts (s phosphorothioate, o phosphodiester; PS: all linkages phosphorothioate). The collection does not say whether C is 5-methylated. l = locked nucleic acid (LNA); d = 2'-deoxy (DNA)
# Molecular target: Tau
# Assay: rat primary cortical neurons, FLIPR, 25 uM ASO
row,Sequence,calcium oscillation score
1,"AACCGTTTTCTTACCAC (sugars l2 d11 l4, PS)",60.1 % of control
2,"TTCTCACCAAACCCAGA (sugars l3 d12 l2, PS)",57.8 % of control
3,"TATTTCCAAATTCACTTTTA (sugars l1 d17 l2, PS)",≥ 200 % of control
4,"CTATTCCTGAATTTTTC (sugars l4 d10 l3, PS)",69 % of control
5,"GATATTCCACACATAA (sugars l4 d8 l4, PS)",54.8 % of control
6,"ATTTCTCTAATTGTCCA (sugars l4 d10 l3, PS)",46.8 % of control
7,"AAGCAGGTTAAGTGATTAAC (sugars l3 d14 l3, PS)",12.9 % of control
8,"TTATTTCCAAATTCACTTTT (sugars llddlldddddddddlldll, PS)",88.8 % of control
9,"CCTTTTTATTTCCTCCGC (sugars l3 d13 l2, PS)",40.1 % of control
10,"GATATTGTCCAGGGACCCAA (sugars l3 d14 l3, PS)",9.97 % of control
11,"CTCTTCCACTACAAGC (sugars l3 d11 l2, PS)",46.2 % of control
12,"CCATCAATTTGGAAAGATGA (sugars l3 d14 l3, PS)",52.3 % of control
13,"GGTCTGAGCTACCAGG (sugars l3 d10 l3, PS)",14.8 % of control
14,"ACTTAAAATTTTTCTTATT (sugars l4 d11 l4, PS)",75.1 % of control
15,"TCCAAACTTTTACTCTG (sugars l3 d10 l4, PS)",31.2 % of control
16,"AACCAATTAACCGAACTGCG (sugars l3 d14 l3, PS)",18.1 % of control
17,"AACAAACATCTAAACACCTC (sugars l3 d13 l4, PS)",75.1 % of control
18,"TAATCACTCATGCCTTA (sugars l4 d9 l4, PS)",62.9 % of control
19,"CTTTTCCCAATTATTAAC (sugars l4 d10 l4, PS)",60.1 % of control
20,"TGCTTACACACCACACA (sugars l2 d12 l3, PS)",80.5 % of control
21,"TATTTCCAAATTCACTTTTA (sugars lldlddldddddddddllll, PS)",114 % of control
22,"ATTAACCAATTAACCG (sugars l3 d10 l3, PS)",103 % of control

row,Sequence,calcium oscillation score
1,"TTTTTTAACTCCCAACTC (sugars l4 d10 l4, PS)",95.2 % of control
2,"AGGGACGTGGGTGATATTGT (sugars l3 d14 l3, PS)",1.3 % of control
3,"CATAGTCACTCTGGTG (sugars l3 d10 l3, PS)",1.9 % of control
4,"TTATTCTTTTTTTTTCCACA (sugars l2 d14 l4, PS)",30.3 % of control
5,"TGATCACCCTAAACCA (sugars l3 d10 l3, PS)",118 % of control
6,"TCCCCACCCAAACTCCAA (sugars l2 d14 l2, PS)",76.5 % of control
7,"GCAGGTATCCAGCCATATTT (sugars l3 d14 l3, PS)",29.4 % of control
8,"AATTTATTAATTCATAAATG (sugars l3 d14 l3, PS)",38.3 % of control
9,"CGCAGGCGCGAGCA (sugars l3 d8 l3, PS)",102 % of control
10,"TTATTTCCAAATTCACTTTT (sugars lldldldddddddddldlll, PS)",106 % of control
11,"ACATCTCTCTAGACAT (sugars l4 d9 l3, PS)",59.5 % of control
12,"CTTTATTTCCAAATTCACT (sugars l3 d11 l1 d1 l3, PS)",116 % of control
13,"GAGAGACCACATTATCATCC (sugars l3 d14 l3, PS)",96.7 % of control
14,"CCTCCACCCTTACACAT (sugars l2 d13 l2, PS)",55.6 % of control
15,"TCAGCTAGCGTGGCGA (sugars l3 d10 l3, PS)",75.9 % of control
16,"ACCACATTATCATCCATTC (sugars l2 d14 l3, PS)",51.9 % of control
17,"GTTTGTAGACTATT (sugars l3 d8 l3, PS)",125 % of control
18,"CTTTTGAACCCATTCCA (sugars l3 d12 l2, PS)",82.2 % of control
19,"ATTTCCAAATTCACTTTTAC (sugars lllldddddddddlddldll, PS)",110 % of control
20,"AGTTCCCACAATTCCTA (sugars l2 d13 l2, PS)",38.7 % of control
21,"CCCTGAAACCATTAAC (sugars l3 d9 l4, PS)",70.2 % of control
22,"ATTTCCAAATTCACTTTTAC (sugars lllddldddddddddlldll, PS)",110 % of control

row,Sequence,calcium oscillation score
1,"CTTGGGTGGAGTACGG (sugars l3 d10 l3, PS)",0 % of control
2,"CCTAATGAGCCACACT (sugars l3 d10 l3, PS)",92.6 % of control
3,"CCTTTTAATTCATTAG (sugars l4 d8 l4, PS)",59 % of control
4,"CTTTATTTCCAAATTCACTT (sugars l4 d13 l3, PS)",121 % of control
5,"TCACCACTTTAATCTGCC (sugars l2 d14 l2, PS)",69 % of control
6,"CTCAAATCAAACTAATATT (sugars l4 d11 l4, PS)",98.6 % of control
7,"CCTAATCCTGTGCTT (sugars l3 d9 l3, PS)",58.2 % of control
8,"AAATCCTTAATTTAACCACA (sugars l4 d12 l4, PS)",63.1 % of control
9,"GAGCCACACTTGGAGGTCAC (sugars l3 d14 l3, PS)",0 % of control
10,"TTCTCAAGTCTCTTTAA (sugars l3 d11 l3, PS)",70.7 % of control
11,"TGAATAACATTAACCC (sugars l4 d8 l4, PS)",54 % of control
12,"ACCTGGCCACCTCCTG (sugars l3 d10 l3, PS)",28.6 % of control
13,"TTATTTCCAAATTCACTTTT (sugars lldldldddddddddlldll, PS)",110 % of control
14,"ACCATGATCTTAGGCT (sugars l3 d10 l3, PS)",87.8 % of control
15,"CAACAAACATCTAAACACCT (sugars l4 d13 l3, PS)",78.9 % of control
16,"GCACCCTCCAAATCACCA (sugars l1 d15 l2, PS)",50.6 % of control
17,"CTCGCGGAAGGTCAGC (sugars l3 d10 l3, PS)",0 % of control
18,"ACTTTCCTAATTCCCAAATT (sugars l3 d15 l2, PS)",63.3 % of control
19,"ACCTTTTTCCATCTTACT (sugars l4 d12 l2, PS)",68.4 % of control
20,"ACTCAACATTACCCTTAAAT (sugars l4 d14 l2, PS)",71.5 % of control
21,"CAAACAATCCATTTATATTC (sugars l4 d12 l4, PS)",55.5 % of control
22,"CCCAGCGTGATCTTCCATCA (sugars lldllddddddddddlldll, PS)",100 % of control

row,Sequence,calcium oscillation score
1,"TATCTTATTGCTTTCCA (sugars l2 d12 l3, PS)",63 % of control
2,"CGCTTCCAGTCCCGTC (sugars l3 d10 l3, PS)",15.7 % of control
3,"CAGCTTGTGGGTTTCAATCT (sugars l3 d14 l3, PS)",0 % of control
4,"ACCCTTGATCATATTTGTGG (sugars l3 d14 l3, PS)",30.9 % of control
5,"GAAATCCCTCTACTCCA (sugars l3 d12 l2, PS)",73.7 % of control
6,"CCAACTCAACATTACCCTT (sugars l2 d15 l2, PS)",66.3 % of control
7,"CACTGGCGACTTGTACACGA (sugars l3 d14 l3, PS)",5.18 % of control
8,"AAGATACATGCGTCCT (sugars l3 d10 l3, PS)",112 % of control
9,"CCTCCTTAACCATTAG (sugars l2 d11 l3, PS)",54.5 % of control
10,"TTCTGAATTCCTATCAT (sugars l4 d10 l3, PS)",40.1 % of control
11,"AGGCATGATTGTGGGC (sugars l3 d10 l3, PS)",0 % of control
12,"GCGCAGGCGCGAGCAG (sugars l3 d10 l3, PS)",0 % of control
13,"GTCACCTTGCTCAGGT (sugars l3 d10 l3, PS)",7.67 % of control
14,"TCCCACCATCCACGCTC (sugars l2 d13 l2, PS)",64.7 % of control
15,"AAGCATTTCAAGATAC (sugars l3 d10 l3, PS)",66.7 % of control
16,"TTTGTAGACTATTT (sugars l3 d8 l3, PS)",90.7 % of control
17,"AATACAAACAGCCTCCC (sugars l2 d12 l3, PS)",61.6 % of control
18,"TAGACCACATTTCCATC (sugars l3 d11 l3, PS)",79.1 % of control
19,"CTTTAATTTAATCACTCA (sugars l4 d10 l4, PS)",76.6 % of control
20,"ACGTGGGTGATATTGTCCAG (sugars l3 d14 l3, PS)",0 % of control
21,"CCAATTATCTTTAAATTCTA (sugars l4 d13 l3, PS)",70.7 % of control
22,"TTTATCCCTCCATGATT (sugars l2 d12 l3, PS)",58.8 % of control

row,Sequence,calcium oscillation score
1,"TCAACTGGTTTGTAGACTAT (sugars l3 d14 l3, PS)",29.9 % of control
2,"CCCTAAAGTCCCAGGT (sugars l3 d10 l3, PS)",76.2 % of control
3,"TATTGCTTTCCAATTCCC (sugars l4 d12 l2, PS)",93.2 % of control
4,"CTTGTGATGCAGGAG (sugars l3 d9 l3, PS)",87.8 % of control
5,"TTTCCCCATTTATCCTT (sugars l4 d11 l2, PS)",87.4 % of control
6,"CTTTATTTCCAAATTCACTT (sugars l5 d11 l4, PS)",143 % of control
7,"TATTTCCAAATTCACTTTTA (sugars l4 d11 l5, PS)",172 % of control
8,"ATCTTCGACTGGACTC (sugars l3 d10 l3, PS)",59.7 % of control
9,"TTTATTTCCAAATTCACTTT (sugars l2 d16 l2, PS)",141 % of control
10,"TCATGAGCACTAACTCTAAG (sugars l3 d14 l3, PS)",35.7 % of control
11,"TCTTAGCATCAGAGGTTTCA (sugars l3 d14 l3, PS)",18.5 % of control
12,"CTTAGTCATCTTCCCTC (sugars l2 d13 l2, PS)",92.4 % of control
13,"CCATGTCGATGCTGC (sugars l3 d9 l3, PS)",7.14 % of control
14,"CCTTGATCATATTTGTGGCA (sugars l3 d14 l3, PS)",28.6 % of control
15,"TTTTTCTCTCTTAACTTT (sugars l4 d10 l4, PS)",94.5 % of control
16,"TTTTCAAACACACCTTCAT (sugars l3 d12 l4, PS)",80.8 % of control
17,"TTATTTCCAAATTCACTTTT (sugars llldlddddddddddldlll, PS)",116 % of control
18,"AGTCTTTATTAACACTC (sugars l4 d9 l4, PS)",60.8 % of control
19,"TTCTTCCTTTGTAATTCC (sugars l3 d13 l2, PS)",39.6 % of control
